Structures are written as SMILES. Read-outs that look alike come from different tables or passages of the source.

One series has as its system MHV-1. The format is in vivo, A/J mice. To be noted: for body weight loss / death rate / disease (illness) scores / lung coefficient index: Example 2, in water: GABA 2 mg/mL, homotaurine 0.25 mg/mL, baclofen 0.25 mg/mL, vs untreated controls.
For series [1], the system named is SARS-CoV-2. Format: in vivo, K18-hACE2 mice.
The test system of series [2] is SARS-CoV-2. Format: in vivo, K18-hACE2 mice. The settings on record: for mice surviving on days 7-8 post-infection: control 20%.
Series [3] deals with SARS-CoV-2. To be noted: NIH (NCATS) screen; cited from earlier work.
The test system of series [4] is autoreactive Th1 and Th17 cells. To be noted: cited from earlier work; for disease progression in mouse models of type 1 diabetes, multiple sclerosis, and rheumatoid arthritis: administration of GABA or homotaurine; for CD4+ and CD8+ Treg responses / autoreactive Th1 and Th17 cells: in vivo administration.
The conditions of series [5]: cited from earlier work.
[6] abbreviates: GABA 2 mg/mL treated vs untreated infected mice.
[7] abbreviates: GABA 2 mg/mL vs untreated infected mice, p<0.001.
The mark [8] stands for this setting: GABA-treated vs SC group, no statistically significant difference.
Setting [9] is: hundreds of epilepsy patients, long-term studies.

Turning to `NCC(CC(=O)O)c1ccc(Cl)cc1` (stereo not drawn) [Baclofen, baclofen], in the series with MHV-1, the body weight loss result is “did not significantly decrease”, the death rate entry was “did not significantly decrease”, the “disease (illness) scores” value is recorded as “slight but significant ability to reduce” and the lung coefficient index entry was “did not significantly decrease”.
`NCCCC(=O)O` [GABA, gamma-aminobutyric acid]: in the series with SARS-CoV-2 [1] (setting [6]), the “serum GM-CSF level” value is “not found to have a statistically significant difference”, the “serum IFNα level” value is listed as “not found to have a statistically significant difference”, the “serum IFNβ level” value is “not found to have a statistically significant difference” and the “serum IFNγ level” value is recorded as “not found to have a statistically significant difference”. Further, in the series on SARS-CoV-2 [1] (setting [6]), the “serum IL-12 level” value is recorded as “not found to have a statistically significant difference”. For the same compound, in the series with SARS-CoV-2 [1] (setting [7]), the “serum IL-10 levels” value is given as “further significantly elevated” and the “serum IP-10 (CXCL10) levels” value is given as “significantly reduced”. The “TNFα production (serum)” value with SARS-CoV-2 [1] (GABA 2 mg/mL vs untreated infected, p<0.001) is “significantly mitigated”. In the series with SARS-CoV-2 [1] (GABA 2 mg/mL, 1/10 in healthy and infected control groups), the “mice with detectable IFNβ levels” value is 3/10. Besides, the “mice with high levels of IFNγ” value with SARS-CoV-2 [1] (GABA 2 mg/mL, 3/10 in untreated infected group) is 1/10. The “median and mean levels of IFNα” value with SARS-CoV-2 [1] (GABA treated vs. untreated infected group, p=0.14) is on record as “slightly elevated”. Also, in the series on SARS-CoV-2 [1] (setting [8]), the “serum IL-1β level” value is listed as “slightly reduced” and the “serum IL-6 level” value is “slightly reduced”. Besides, the “median and mean IFNγ levels” value in the series with SARS-CoV-2 [1] (GABA-treated vs. untreated infected mice, p=0.25) is on record as “reduced”. Besides, the “serum CCL2 levels” value in the series with SARS-CoV-2 [1] (GABA-treated vs. untreated-infected mice, p=0.07) is “tending to be lower”. In the series on SARS-CoV-2 [1] (among HC, SC and GABA groups), the “serum CCL5 level” value is “No statistically significant difference” and the “serum CXCL1 level” value was “No statistically significant difference”. Also, in the series with SARS-CoV-2 [2] (Example 4, GABA 2 mg/mL started 2 days post-infection, control 22%, p=0.004), the “mice survived at end of study on day 7” value is listed as 88%. Further, the “longitudinal mean illness scores” value in the series with SARS-CoV-2 [2] (Example 4, GABA 2 mg/mL started 2 days post-infection, overall p=0.002) is given as “reduced”. For the same compound, the “mice that died during the 7-day observation period” value with SARS-CoV-2 [2] (Trial 1, GABA 0.2 mg/mL in water, control 3/5 died) is on record as “none”. Besides, the “mice surviving on days 7-8 post-infection” value in the series with SARS-CoV-2 [2] (Trial 2, GABA 0.2 mg/mL, p=0.004) is listed as 80%. The “mice surviving on days 7-8 post-infection” value with SARS-CoV-2 [2] (Trial 2, GABA 2 mg/mL, p=0.018) is 80%. The illness scores result with SARS-CoV-2 [2] (Trial 2, GABA 0.2 or 2.0 mg/mL in water from infection, vs control) is “significantly reduced”. Also, in the series with MHV-1, the body weight loss entry is listed as “significantly reduced”, the death rate result was “significantly reduced” and the “disease (illness) scores” value is listed as “significantly reduced”. The “highest average illness score” value with MHV-1 (GABA 20 mg/ml immediately after inoculation, day 7 post-infection, scale 0-5) is on record as 1.6. In addition, the “body weight at 14 days post-infection, of starting weight” value with MHV-1 (GABA 20 mg/ml starting 3 days post-infection) is on record as 90%. Also, the “maximum mean illness score” value in the series on MHV-1 (GABA 20 mg/ml starting 3 days post-infection, scale 0-5) came to 2.5. Further, in the series on MHV-1 (GABA 20 mg/ml starting 3 days post-infection, up to 14 days (death on day 9)), the mice that died is listed as 1/9. The “average body weight below starting weight 14 days post-infection” value in the series with MHV-1 (GABA 20 mg/ml starting immediately after MHV-1 inoculation) is given as 7%. The mice that died result in the series with MHV-1 (GABA 20 mg/ml starting immediately after MHV-1 inoculation, up to 14 days, control 3/9 survived) is “none”. In the series with SARS-CoV-2 [3], the “SARS-CoV-2 interaction with its cellular receptor” value is given as “did not interfere” and the SARS-CoV-2 replication entry is “did not interfere”. Moreover, in series [4], the “disease progression in mouse models of type 1 diabetes, multiple sclerosis, and rheumatoid arthritis” value is recorded as “inhibits”; the “CD4+ and CD8+ Treg responses” value is “promoting”; the “autoreactive Th1 and Th17 cells” value is “inhibits”. Moreover, in series [5] (setting [9]), the “ability to reduce seizures” value is “no clinical benefit” and the adverse effects result is “no adverse effects”. In series [5] (phase Ib GABA oral dosing study), the safety entry is listed as “safe”.
For `NCCCS(=O)(=O)O` [homotaurine], in the series with MHV-1, the body weight loss result is “significantly reduced”, the death rate result was “significantly reduced”, the “disease (illness) scores” value was “significantly reduced” and the lung coefficient index result was “significantly reduced”. Also, in series [4], the “disease progression in mouse models of type 1 diabetes, multiple sclerosis, and rheumatoid arthritis” value was “inhibits”; the “CD4+ and CD8+ Treg responses” value is reported as “promoting”; the “autoreactive Th1 and Th17 cells” value is listed as “inhibits”.

The values are drawn from US20240390311A1 (priority 2020, published 2024).
